Reference: PubChem BioAssay (NCI)
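These data come from cells grown in 96-well plates and exposed to compound for 48 hours at five concentrations. The concentration for 50% growth inhibition is given as GI50. TGI is the concentration that stops growth completely.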

Assays:
Assay in all cases: DTP human tumour cell line panel, 48 h
786-0 renal = system: 786-0 renal
A498 renal = system: A498 renal
A549 NSCLC = system: A549 NSCLC
ACHN renal = system: ACHN renal
BT-549 breast = system: BT-549 breast
CAKI-1 renal = system: CAKI-1 renal
CCRF-CEM leukemia = system: CCRF-CEM leukemia
COLO 205 colon = system: COLO 205 colon
DU-145 prostate = system: DU-145 prostate
EKVX NSCLC = system: EKVX NSCLC
HCC-2998 colon = system: HCC-2998 colon
HCT-116 colon = system: HCT-116 colon
HCT-15 colon = system: HCT-15 colon
HL-60(TB) leukemia = system: HL-60(TB) leukemia
HOP-62 NSCLC = system: HOP-62 NSCLC
HOP-92 NSCLC = system: HOP-92 NSCLC
HS 578T breast = system: HS 578T breast
HT29 colon = system: HT29 colon
IGROV1 ovarian = system: IGROV1 ovarian
K-562 leukemia = system: K-562 leukemia
KM12 colon = system: KM12 colon
LOX IMVI melanoma = system: LOX IMVI melanoma
M14 melanoma = system: M14 melanoma
MALME-3M melanoma = system: MALME-3M melanoma
MCF7 breast = system: MCF7 breast
MDA-MB-435 = system: MDA-MB-435
MDA-MB-468 breast = system: MDA-MB-468 breast
MOLT-4 leukemia = system: MOLT-4 leukemia
NCI-H226 lung = system: NCI-H226 lung
NCI-H23 lung = system: NCI-H23 lung
NCI-H460 lung = system: NCI-H460 lung
NCI-H522 lung = system: NCI-H522 lung
NCI/ADR-RES ovarian = system: NCI/ADR-RES ovarian
OVCAR-3 ovarian = system: OVCAR-3 ovarian
OVCAR-4 ovarian = system: OVCAR-4 ovarian
OVCAR-5 ovarian = system: OVCAR-5 ovarian
OVCAR-8 ovarian = system: OVCAR-8 ovarian
PC-3 prostate = system: PC-3 prostate
RPMI-8226 leukemia = system: RPMI-8226 leukemia
RXF 393 renal = system: RXF 393 renal
SF-268 CNS = system: SF-268 CNS
SF-295 CNS = system: SF-295 CNS
SF-539 CNS = system: SF-539 CNS
SK-MEL-2 melanoma = system: SK-MEL-2 melanoma
SK-MEL-28 melanoma = system: SK-MEL-28 melanoma
SK-MEL-5 melanoma = system: SK-MEL-5 melanoma
SK-OV-3 ovarian = system: SK-OV-3 ovarian
SN12C renal = system: SN12C renal
SNB-19 CNS = system: SNB-19 CNS
SNB-75 CNS = system: SNB-75 CNS
SW-620 colon = system: SW-620 colon
T-47D breast = system: T-47D breast
TK-10 renal = system: TK-10 renal
U251 CNS = system: U251 CNS
UACC-257 melanoma = system: UACC-257 melanoma
UACC-62 melanoma = system: UACC-62 melanoma

For CO[C@H]1CSS[C@@H]1Cn1nc(-c2ccc(Oc3ccccc3)cc2)c2c(N)ncnc21, the GI50 (786-0 renal) was 17.4 µM, the TGI (786-0 renal) was 58 µM and the GI50 (A498 renal) was 17.7 µM. For the same molecule, the TGI (A498 renal) was 63.9 µM, the GI50 (A549 NSCLC) was 4.37 µM and the TGI (A549 NSCLC) was over 100 µM. For the same molecule, the GI50 (ACHN renal) was 4.5 µM, the TGI (ACHN renal) was 37.3 µM and the GI50 (BT-549 breast) was 18.4 µM. The TGI (BT-549 breast) was 34.6 µM, the GI50 (CAKI-1 renal) was 8.17 µM and the TGI (CAKI-1 renal) was 74.7 µM. It also gave a GI50 (CCRF-CEM leukemia) of 4.49 µM, a TGI (CCRF-CEM leukemia) of 22.3 µM and a GI50 (COLO 205 colon) of 11.3 µM. For the same molecule, the TGI (COLO 205 colon) was 24.7 µM, the GI50 (DU-145 prostate) was 13.7 µM and the TGI (DU-145 prostate) was over 100 µM. The GI50 (EKVX NSCLC) was 4.87 µM, the TGI (EKVX NSCLC) was 30.1 µM and the GI50 (HCC-2998 colon) was 4.31 µM. The TGI (HCC-2998 colon) was 18 µM, the GI50 (HCT-116 colon) was 4.19 µM and the TGI (HCT-116 colon) was 15.9 µM. For the same molecule, the GI50 (HCT-15 colon) was 6.09 µM, the TGI (HCT-15 colon) was 32.6 µM and the GI50 (HL-60(TB) leukemia) was 4.16 µM. For the same molecule, the TGI (HL-60(TB) leukemia) was 17.6 µM, the GI50 (HOP-62 NSCLC) was 3.25 µM and the TGI (HOP-62 NSCLC) was 26.9 µM. For the same molecule, the GI50 (HOP-92 NSCLC) was 5.03 µM, the TGI (HOP-92 NSCLC) was 29.3 µM and the GI50 (HS 578T breast) was 14.2 µM. It also gave a TGI (HS 578T breast) of 68.3 µM, a GI50 (HT29 colon) of 4.28 µM and a TGI (HT29 colon) of 18.1 µM. For the same molecule, the GI50 (IGROV1 ovarian) was 8.69 µM, the TGI (IGROV1 ovarian) was 35.3 µM and the GI50 (K-562 leukemia) was 2.83 µM. For the same molecule, the TGI (K-562 leukemia) was 14.4 µM, the GI50 (KM12 colon) was 5.51 µM and the TGI (KM12 colon) was 28 µM. It also gave a GI50 (LOX IMVI melanoma) of 8.01 µM, a TGI (LOX IMVI melanoma) of 20.7 µM and a GI50 (M14 melanoma) of 1.86 µM. The TGI (M14 melanoma) was 3.78 µM, the GI50 (MALME-3M melanoma) was 9.3 µM and the TGI (MALME-3M melanoma) was 23.1 µM. The GI50 (MCF7 breast) was 3.84 µM, the TGI (MCF7 breast) was 20.6 µM and the GI50 (MDA-MB-435) was 2 µM. The TGI (MDA-MB-435) was 4.28 µM, the GI50 (MDA-MB-468 breast) was 3.06 µM and the TGI (MDA-MB-468 breast) was 12.9 µM. It also gave a GI50 (MOLT-4 leukemia) of 1.84 µM, a TGI (MOLT-4 leukemia) of 4.93 µM and a GI50 (NCI-H226 lung) of 9.1 µM. For the same molecule, the TGI (NCI-H226 lung) was 50.3 µM, the GI50 (NCI-H23 lung) was 8.51 µM and the TGI (NCI-H23 lung) was 42.1 µM. The GI50 (NCI-H460 lung) was 2.69 µM, the TGI (NCI-H460 lung) was 7.89 µM and the GI50 (NCI-H522 lung) was 11 µM. The TGI (NCI-H522 lung) was 27.2 µM, the GI50 (NCI/ADR-RES ovarian) was 12.8 µM and the TGI (NCI/ADR-RES ovarian) was 64.6 µM. The GI50 (OVCAR-3 ovarian) was 7.82 µM, the TGI (OVCAR-3 ovarian) was 30.5 µM and the GI50 (OVCAR-4 ovarian) was 18.4 µM. It also gave a TGI (OVCAR-4 ovarian) of over 100 µM, a GI50 (OVCAR-5 ovarian) of 11.4 µM and a TGI (OVCAR-5 ovarian) of 41.3 µM. The GI50 (OVCAR-8 ovarian) was 7.26 µM, the TGI (OVCAR-8 ovarian) was 53.7 µM and the GI50 (PC-3 prostate) was 18 µM. For the same molecule, the TGI (PC-3 prostate) was 75.1 µM, the GI50 (RPMI-8226 leukemia) was 13.5 µM and the TGI (RPMI-8226 leukemia) was 51.4 µM. The GI50 (RXF 393 renal) was 6.13 µM, the TGI (RXF 393 renal) was 25.3 µM and the GI50 (SF-268 CNS) was 4.22 µM. The TGI (SF-268 CNS) was over 100 µM, the GI50 (SF-295 CNS) was 20.6 µM and the TGI (SF-295 CNS) was 63.4 µM. The GI50 (SF-539 CNS) was 14.4 µM, the TGI (SF-539 CNS) was 49.2 µM and the GI50 (SK-MEL-2 melanoma) was 3.99 µM. For the same molecule, the TGI (SK-MEL-2 melanoma) was 15 µM, the GI50 (SK-MEL-28 melanoma) was 2.75 µM and the TGI (SK-MEL-28 melanoma) was 8.16 µM. It also gave a GI50 (SK-MEL-5 melanoma) of 3.21 µM, a TGI (SK-MEL-5 melanoma) of 12.2 µM and a GI50 (SK-OV-3 ovarian) of 2.38 µM. It also gave a TGI (SK-OV-3 ovarian) of 7.36 µM, a GI50 (SN12C renal) of 6.52 µM and a TGI (SN12C renal) of 27.3 µM. It also gave a GI50 (SNB-19 CNS) of 5.96 µM, a TGI (SNB-19 CNS) of over 100 µM and a GI50 (SNB-75 CNS) of 18.8 µM. The TGI (SNB-75 CNS) was 75.3 µM, the GI50 (SW-620 colon) was 14.6 µM and the TGI (SW-620 colon) was over 100 µM. For the same molecule, the GI50 (T-47D breast) was 2.81 µM, the TGI (T-47D breast) was 20.8 µM and the GI50 (TK-10 renal) was 8.05 µM. For the same molecule, the TGI (TK-10 renal) was 25.7 µM, the GI50 (U251 CNS) was 6.89 µM and the TGI (U251 CNS) was 55.2 µM. It also gave a GI50 (UACC-257 melanoma) of 2.98 µM, a TGI (UACC-257 melanoma) of 12 µM and a GI50 (UACC-62 melanoma) of 2.82 µM. The TGI (UACC-62 melanoma) was 12.7 µM.
